# Target: human σ1 receptor (Homo sapiens, UniProt Q99720)
# Test: Human σ1 receptor radioligand assay ([3H](+)-pentazocine, transfected HEK-293 membranes)
# Assay type: binding
# Set-up: μ and σ1 dual binding: key to the marks not given beside the values
# Conditions: one class symbol for both Ki-σ1 (human σ1 receptor, A1) and Ki-μ (human μ-opioid receptor, A2)
# Experimental: Human σ1 Receptor Radioligand Assay
# To investigate binding properties of test compounds to human σ1 receptor, transfected HEK-293 membranes and [^3H](+)-pentazocine (Perkin Elmer, NET-1056), as the radioligand, were used. The assay was carried out with 7 μg of membrane suspension, 5 nM of [^3H](+)-pentazocine in either absence or presence of either buffer or 10 μM Haloperidol for total and non-specific binding, respectively. Binding buffer contained Tris-HCl 50 mM at pH 8. Plates were incubated at 37° C. for 120 minutes. After the incubation period, the reaction mix was then transferred to MultiScreen HTS, FC plates (Millipore), filtered and plates were washed 3 times with ice-cold 10 mM Tris-HCL (pH7.4). Filters were dried and counted at approximately 40% efficiency in a MicroBeta scintillation counter (Perkin-Elmer) using EcoScint liquid scintillation cocktail
# human σ1 receptor, sequence (Q99720 whole entry): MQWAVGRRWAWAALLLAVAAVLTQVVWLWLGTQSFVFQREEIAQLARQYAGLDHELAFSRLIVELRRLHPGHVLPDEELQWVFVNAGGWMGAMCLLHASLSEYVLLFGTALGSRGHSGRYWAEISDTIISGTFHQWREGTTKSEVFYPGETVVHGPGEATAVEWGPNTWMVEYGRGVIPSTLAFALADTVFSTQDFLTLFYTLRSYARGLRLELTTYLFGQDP
row,Compound,μ and σ1 dual binding
1,"CCC1(N2CCN(CCOC(C)C)CC2)CCOCC1 [Example 176, 1-(4-ethyltetrahydro-2H-pyran-4-yl)-4-(2-isopropoxyethyl)piperazine]",++
2,"CN(Cc1ccccc1)[C@H]1CCN([C@]2(C(=O)c3ccccn3)CCOC(C)(C)C2)C1 [Example 141, ((R)-4-((S)-3-(benzyl(methyl)amino)pyrrolidin-1-yl)-2,2-dimethyltetrahydro-2H-pyran-4-yl)(pyridin-2-yl)methanone]",++
3,"CC[C@@]1(N2CCN(CCC(C)C)CC2)CCO[C@@H](C)C1 [Example 160, 1-((2S,4R)-4-ethyl-2-methyltetrahydro-2H-pyran-4-yl)-4-isopentylpiperazine]",++
4,CC(C)OCCN1CCC([C@@]2(C(=O)c3ccccn3)CCO[C@@H](C)C2)CC1 [Example 172],++
5,"CC1(C)CC(C(=O)c2cccnc2)(N2CCN(Cc3ccccc3)CC2)CCO1 (stereo not shown) [Example 10, (4-(4-benzylpiperazin-1-yl)-2,2-dimethyltetrahydro-2H-pyran-4-yl)(pyridin-3-yl)methanone]",++
6,"CC(C)C1(N2CCN(CCc3cccc(F)c3F)CC2)CCOC(C)(C)C1 (stereo not shown) [Example 101, 1-(2,3-difluorophenethyl)-4-(4-isopropyl-2,2-dimethyltetrahydro-2H-pyran-4-yl)piperazine]",++
7,"CC1(C)CC(C(=O)c2ccccn2)(C2CCN(Cc3ccc(F)cc3)CC2)CCO1 (stereo not shown) [Example 109, (4-(1-(4-fluorobenzyl)piperidin-4-yl)-2,2-dimethyltetrahydro-2H-pyran-4-yl)(pyridin-2-yl)methanone]",++
8,"CC(C)(O)COCCN1CCN(C2(C(=O)c3ccccn3)CCOC(C)(C)C2)CC1 (stereo not shown) [Example 70, (4-(4-(2-(2-hydroxy-2-methylpropoxy)ethyl)piperazin-1-yl)-2,2-dimethyltetrahydro-2H-pyran-4-yl)(pyridin-2-yl)methanone]",++
9,"CC(C)CCN(C)[C@@H]1CCN([C@]2(C(=O)c3ccccn3)CCOC(C)(C)C2)C1 [Example 149, ((R)-4-((R)-3-(isopentyl(methyl)amino)pyrrolidin-1-yl)-2,2-dimethyltetrahydro-2H-pyran-4-yl)(pyridin-2-yl)methanone]",++
10,"CC(C)OCCN1CC2CN(C3(C(=O)c4ccccn4)CCOC(C)(C)C3)CC2C1 (stereo not shown) [Example 73, (4-(5-(2-isopropoxyethyl)hexahydropyrrolo[3,4-c]pyrrol-2(1H)-yl)-2,2-dimethyltetrahydro-2H-pyran-4-yl)(pyridin-2-yl)methanone]",++
11,"CC(C)OCCN1CCC([C@]2(C(=O)c3ccccn3)CCO[C@H](C)C2)CC1 [Example 249, ((2R,4S)-4-(1-(2-isopropoxyethyl)piperidin-4-yl)-2-methyltetrahydro-2H-pyran-4-yl)(pyridin-2-yl)methanone]",++
12,"CC(C)CCN1CCN([C@]2(C)CCO[C@@H](C)C2)CC1 [Example 162, 1-((2S,4R)-2,4-dimethyltetrahydro-2H-pyran-4-yl)-4-isopentylpiperazine]",++
13,"CC(C)OCCN(C)[C@H]1CCN([C@]2(C(=O)c3ccccn3)CCOC(C)(C)C2)C1 [Example 146, ((R)-4-((S)-3-((2-isopropoxyethyl)(methyl)amino)pyrrolidin-1-yl)-2,2-dimethyltetrahydro-2H-pyran-4-yl)(pyridin-2-yl)methanone]",++
14,"c1ccc(C2(N3CCN(Cc4cccnc4)CC3)CCOC3(CCCC3)C2)cc1 (stereo not shown) [Example 119, 1-(9-phenyl-6-oxaspiro[4.5]decan-9-yl)-4-(pyridin-3-ylmethyl)piperazine]",++
15,"CC[C@@]1(N2CCN(Cc3ccccc3)CC2)CCO[C@@H](C)C1 [Example 164, 1-benzyl-4-((2S,4R)-4-ethyl-2-methyltetrahydro-2H-pyran-4-yl)piperazine]",++
16,CCOCCN1CCC(C2(C(=O)c3ccccn3)CCOC(C)(C)C2)CC1 (stereo not shown) [Example 104],++
17,"CCC1(N2CCN(CCC(C)C)CC2)CCOC(C)(C)C1 (stereo not shown) [Example 78, 1-(4-ethyl-2,2-dimethyltetrahydro-2H-pyran-4-yl)-4-isopentylpiperazine]",++
18,"CC(c1ccc(F)cc1)N1CCN(C2(C(=O)c3ccccn3)CCOC(C)(C)C2)CC1 (stereo not shown) [Example 63, (4-(4-(1-(4-fluorophenyl)ethyl)piperazin-1-yl)-2,2-dimethyltetrahydro-2H-pyran-4-yl)(pyridin-2-yl)methanone]",++

# Same assay, conditions: one class symbol for both Ki-σ1 (human σ1 receptor, A1) and Ki-μ (human μ-opioid receptor, A2); read-out: μ and σ1 dual binding
row,Compound,Ki
1,"COc1cc(CN2CCN(C3(C(=O)c4ccccn4)CCOCC3)CC2)ccc1F [Example 198, (4-(4-(4-fluoro-3-methoxybenzyl)piperazin-1-yl)tetrahydro-2H-pyran-4-yl)(pyridin-2-yl)methanone]",> 500 nM
2,"CC[C@]1(N2CCN(Cc3ccc(C#N)cc3)CC2)CCO[C@H](C)C1 [Example 251, 4-((4-((2R,4S)-4-ethyl-2-methyltetrahydro-2H-pyran-4-yl)piperazin-1-yl)methyl)benzonitrile]",> 500 nM
3,"CCC1(C2CCN(Cc3ccccc3)CC2)CCOCC1 [Example 166, 1-benzyl-4-(4-ethyltetrahydro-2H-pyran-4-yl)piperidine]",> 500 nM
4,"CC1(C2CCN(Cc3ccccc3)CC2)CCOCC1 [Example 165, 1-benzyl-4-(4-methyltetrahydro-2H-pyran-4-yl)piperidine]",> 500 nM
5,"N#Cc1ccc(CN2CCN(C3(C4CC4)CCOCC3)CC2)cc1 [Example 191, 4-((4-(4-cyclopropyltetrahydro-2H-pyran-4-yl)piperazin-1-yl)methyl)benzonitrile]",> 500 nM
6,"CC1(C)CC(C(=O)c2ccccn2)(N2CCN(Cc3cccnc3)CC2)CCO1 (stereo not shown) [Example 58, (2,2-dimethyl-4-(4-(pyridin-3-ylmethyl)piperazin-1-yl)tetrahydro-2H-pyran-4-yl)(pyridin-2-yl)methanone]",> 500 nM

# Same assay, conditions: μ and σ1 dual binding, one class symbol for both Ki-σ1 (human σ1 receptor, A1) and Ki-μ (human μ-opioid receptor, A2)
row,Compound,Ki
1,"CC(c1ccccc1)N1CCN(C2(C(=O)c3ccccn3)CCOC(C)(C)C2)CC1 (stereo not shown) [Example 62, (2,2-dimethyl-4-(4-(1-phenylethyl)piperazin-1-yl)tetrahydro-2H-pyran-4-yl)(pyridin-2-yl)methanone]",< 500 nM
2,"O=C(c1ccccc1)C1(N2CCN(Cc3ccccc3)CC2)CCOC2(CCCC2)C1 (stereo not shown) [Example 4, (9-(4-benzylpiperazin-1-yl)-6-oxaspiro[4.5]decan-9-yl)(phenyl)methanone]",< 100 nM
3,"CC(C)(F)COCCN1CCN(C2(C(=O)c3ccccn3)CCOC(C)(C)C2)CC1 (stereo not shown) [Example 116, (4-(4-(2-(2-fluoro-2-methylpropoxy)ethyl)piperazin-1-yl)-2,2-dimethyltetrahydro-2H-pyran-4-yl)(pyridin-2-yl)methanone]",< 500 nM
4,"C=C(C)CCN1CCN(C2(C(=O)c3ccccn3)CCOC(C)(C)C2)CC1 (stereo not shown) [Example 118, (2,2-Dimethyl-4-(4-(3-methylbut-3-enyl)piperazin-1-yl)tetrahydro-2H-pyran-4-yl)(pyridin-2-yl)methanone]",< 500 nM
5,"CC(C)C1(N2CCN(CCc3cccc(F)c3)CC2)CCOC(C)(C)C1 (stereo not shown) [Example 91, 1-(3-fluorophenethyl)-4-(4-isopropyl-2,2-dimethyltetrahydro-2H-pyran-4-yl)piperazine]",< 500 nM
6,"CCC1(N2CCN(CCc3ccccc3F)CC2)CCOC(C)(C)C1 (stereo not shown) [Example 94, 1-(4-ethyl-2,2-dimethyltetrahydro-2H-pyran-4-yl)-4-(2-fluorophenethyl)piperazine]",< 500 nM
7,"CC(C)OCCN1CCN(C2(C(=O)c3cccc(C(F)(F)F)n3)CCOC(C)(C)C2)CC1 (stereo not shown) [Example 16, (4-(4-(2-isopropoxyethyl)piperazin-1-yl)-2,2-dimethyltetrahydro-2H-pyran-4-yl)(6-(trifluoromethyl)pyridin-2-yl)methanone]",< 500 nM
8,"CC(C)COCCN1CCN(C2(C(=O)c3ccccn3)CCOC(C)(C)C2)CC1 (stereo not shown) [Example 66, (4-(4-(2-isobutoxyethyl)piperazin-1-yl)-2,2-dimethyltetrahydro-2H-pyran-4-yl)(pyridin-2-yl)methanone]",< 500 nM
9,"CC(C)OCCCN1CCN(C2(C(=O)c3ccccn3)CCOC(C)(C)C2)CC1 (stereo not shown) [Example 71, (4-(4-(3-isopropoxypropyl)piperazin-1-yl)-2,2-dimethyltetrahydro-2H-pyran-4-yl)(pyridin-2-yl)methanone]",< 500 nM
10,"CN(Cc1ccccc1)[C@H]1CCN(C2(C(=O)c3ccccn3)CCOC(C)(C)C2)C1 (stereo partly drawn) [Example 138, (4-((S)-3-(benzyl(methyl)amino)pyrrolidin-1-yl)-2,2-dimethyltetrahydro-2H-pyran-4-yl)(pyridin-2-yl)methanone]",> 500 nM
11,"CCC1(N2CCN(CCc3cccc(F)c3F)CC2)CCOC(C)(C)C1 (stereo not shown) [Example 100, 1-(2,3-difluorophenethyl)-4-(4-ethyl-2,2-dimethyltetrahydro-2H-pyran-4-yl)piperazine]",< 500 nM
12,"COCCC1(N2CCN(CCc3ccccc3)CC2)CCOC(C)(C)C1 (stereo not shown) [Example 49, 1-(4-(2-Methoxyethyl)-2,2-dimethyltetrahydro-2H-pyran-4-yl)-4-phenethylpiperazine]",< 500 nM
13,"CC(C)OCCN1CCCN(C2(C(=O)c3ccccn3)CCOC(C)(C)C2)CC1 (stereo not shown) [Example 88, (4-(4-(2-isopropoxyethyl)-1,4-diazepan-1-yl)-2,2-dimethyltetrahydro-2H-pyran-4-yl)(pyridin-2-yl)methanone]",< 500 nM

# Source: patent US10807970B2 (priority 2016, dated 2020)
